pIC50: −log10 of the molar value.

Test [1] in a line: Inhibition of LPA-induced intracellular Ca2+ concentration increase (FLIPR). It is filed as cell-based. The settings on record: LPA final concentration 5 μM; rat hepatic stellate cell derived myofibroblast like clone; Fluo-3, FLIPR. The source says: (1) Establishment of Myofibroblast Like Cell Strain Derived from Rat Hepatic Stellate Cell Fraction A stellate cell fraction was obtained from the liver of male Wistar rat according to a conventional method (European J. Biochem., 1993, vol. 213, p. 815). After subculture for several generations, the cell was cloned by limiting dilution. Well grown 24 clones that formed colonies were isolated. These clones were stained with αSMA antibody and confirmed to be all positive and to have Myofibroblast like properties. […] (2) Measurement of Cell Activation (Intracellular Ca^2+ Concentration Increasing Action)-Inhibitory Activity The above-mentioned cells were cultured overnight in a 384 well plate at 24,000 cells/well and the medium was removed. An assay buffer (0.1% BSA, 20 mM HEPES, 1×HBSS, 2.5 mM Probenecid) containing 4 μM of Fluo-3, AM (Biotium) was added, and the cells were stained at 37° C. for 1 hour. Following the buffer containing the dye reagent was removed, and an assay buffer was added, intracellular Ca^2+ concentration was measured with FLIPR (Molecular Devices). Adding a test substance and LPA at the final concentration of 5 μM, the inhibitory action of the test substance on the increase in the intracellular Ca^2+ concentration by LPA was examined. The increase in the intracellular Ca^2+ concentration by LPA addition without test substance was taken as 100%, that without the addition of LPA was taken as 0%, and the substrate's concentration (IC50) at inhibiting increase in the intracellular Ca^2+ concentration by 50% was determined.

The target of a further test is EDG2 (Homo sapiens, UniProt Q92633). The settings on record: as described in WO01/060819; cited from earlier work.
EDG2, sequence (Q92633 whole entry): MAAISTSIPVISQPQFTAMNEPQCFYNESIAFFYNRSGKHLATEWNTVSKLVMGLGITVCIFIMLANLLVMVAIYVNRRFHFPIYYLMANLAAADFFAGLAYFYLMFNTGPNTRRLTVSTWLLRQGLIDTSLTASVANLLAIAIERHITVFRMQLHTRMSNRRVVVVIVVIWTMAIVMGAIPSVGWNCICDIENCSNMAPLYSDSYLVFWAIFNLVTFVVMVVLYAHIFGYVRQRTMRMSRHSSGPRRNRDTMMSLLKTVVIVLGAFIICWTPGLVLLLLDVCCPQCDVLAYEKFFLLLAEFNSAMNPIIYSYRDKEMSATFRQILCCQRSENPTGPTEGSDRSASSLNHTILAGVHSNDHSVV
Test [2] relates to peripheral circulation disorder model induced by lactic acid. The settings on record: animal model of peripheral arterial obstruction; as described in WO01/060819; cited from earlier work.

In general, pIC50 refers to the negative decadic logarithm of the IC50, by convention in mol/L. Consider `CC(CCCc1ccc(-c2nocc2NC(=O)O[C@H](C)c2ccccc2Cl)cc1)C(=O)O` (stereo partly drawn) [Compound 34, 5-(4-{4-[(1R)-1-(2-chlorophenyl)ethoxycarbonylamino]-3-isoxazolyl}phenyl)-2-methylpentanoic acid], for which the pIC50 in test [1] was 6.99.
The compound `COC(=O)CCSCc1ccc(-c2onc(C)c2NC(=O)OC(C)c2ccccc2Cl)cc1` (stereo not shown) [Example 115, methyl 3-([4-[4-([[1-(2-chlorophenyl)ethoxy]carbonyl]amino)-3-methyl-5-isoxazolyl]benzyl]-sulfanyl)propanoate] showed a pIC50 in test [1] of 6.08. Moreover, the EDG2 antagonistic action result at EDG2 is on record as “strong EDG2 antagonistic action”. In test [2], the “action in peripheral circulation disorder model induced by lactic acid” value is “improving action”.

The record behind these values is patent US7517996B2, “Azole compound” (Ajinomoto Co., Inc., priority 2003, dated 2009).
